Experimental data reported in ChEMBL document CHEMBL4665834 (J Med Chem, 2020).

Experiments:
[1] = Clearance in Wistar rat at 0.3 to 1 mg/kg, iv administered as bolus dose or 15 mins infusion by LC-MS/MS analysis; format: ADME, organism-based; details: in vivo, dose 0.3-1 mg/kg; for clearance: Wistar; for CL: 0.25 h
[2] = target: Cytochrome P450 3A4 (Homo sapiens, UniProt P08684); test: Inhibition of CYP3A4 in human liver microsomes using midazolam as substrate incubated for 10 mins in presence of NADPH generating system by LC-MS/MS analysis
[3] = Lipophilicity, log D of compound at pH 7.5 by HPLC analysis; details: buffer
[4] = target: Prostaglandin F2-alpha receptor (Homo sapiens, UniProt P43088); test: Antagonist activity at human FPR expressed in human Chem-1 cells assessed as inhibition of PGF2alpha-induced calcium flux preincubated for 10 mins followed by PGF2alpha stimulation and measured for 120 secs by fluo-8 AM dye based fluorescence assay; format: functional, cell-based
[5] = species: Homo sapiens; test: Selectivity ratio of IC50 for displacement of [3H]prostaglandin E2 from full-length recombinant human EP4 receptor expressed in Chem-1 cell membranes to IC50 for displacement of [3H]PGF2alpha from full-length recombinant human FP receptor expressed in HEK293 cell membranes

Sequence of Prostaglandin F2-alpha receptor (P43088 whole entry): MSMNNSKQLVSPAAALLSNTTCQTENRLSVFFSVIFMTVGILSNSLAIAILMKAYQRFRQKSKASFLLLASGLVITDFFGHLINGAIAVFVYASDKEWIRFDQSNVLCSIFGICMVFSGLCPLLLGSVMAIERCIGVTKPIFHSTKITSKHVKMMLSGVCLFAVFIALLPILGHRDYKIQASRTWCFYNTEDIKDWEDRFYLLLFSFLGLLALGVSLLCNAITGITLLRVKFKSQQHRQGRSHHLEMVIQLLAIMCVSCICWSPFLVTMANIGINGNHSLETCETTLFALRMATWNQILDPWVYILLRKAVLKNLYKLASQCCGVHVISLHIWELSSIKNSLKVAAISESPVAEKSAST
Sequence of Cytochrome P450 3A4 (P08684 whole entry): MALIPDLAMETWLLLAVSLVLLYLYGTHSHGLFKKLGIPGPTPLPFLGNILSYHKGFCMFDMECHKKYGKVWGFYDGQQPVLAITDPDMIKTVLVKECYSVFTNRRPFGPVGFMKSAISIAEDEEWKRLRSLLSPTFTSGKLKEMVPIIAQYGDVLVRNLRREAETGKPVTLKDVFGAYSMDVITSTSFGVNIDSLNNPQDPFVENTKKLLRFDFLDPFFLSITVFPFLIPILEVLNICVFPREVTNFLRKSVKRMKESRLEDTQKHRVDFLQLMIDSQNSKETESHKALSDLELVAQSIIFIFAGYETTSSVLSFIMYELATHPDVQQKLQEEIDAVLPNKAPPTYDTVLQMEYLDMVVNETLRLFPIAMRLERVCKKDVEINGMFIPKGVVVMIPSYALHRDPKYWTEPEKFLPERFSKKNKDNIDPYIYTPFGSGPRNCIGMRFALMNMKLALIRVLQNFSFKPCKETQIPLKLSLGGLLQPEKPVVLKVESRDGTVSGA

SMILES	clearance [1]	IC50 [2]	logD [3]	also measured
Cc1c(N2CCCCC2)nc2ccc(Br)cc2c1C(=O)NCC(CCC(=O)O)c1ccccc1Cl (single isomer, unassigned; (-))	–	–	–	CL [1]: 25 mL/min/kg
COc1ccccc1C(CNC(=O)c1c(C)c(-c2ccccc2)nc2ccc(Br)cc12)CC(=O)O (single isomer, unassigned; (+))	46.7 mL/min/kg	> 20 µM	2	–
Cc1c(-c2ccccc2)nc2ccc(Br)cc2c1C(=O)NCC(CCC(=O)O)c1ccccc1Cl (single isomer, unassigned; (-))	–	–	–	CL [1]: 50 mL/min/kg
Cc1c(-c2ccccc2)nc2ccc(Br)cc2c1C(=O)N(C)CCc1ccccn1	–	–	–	IC50 [4]: 15 µM
Cc1c(-c2ccccc2)cc2ccc(Br)cc2c1C(=O)Nc1ccc(C(=O)O)cc1F	10 mL/min/kg	–	–	IC50 [4]: 0.013 µM
Cc1c(-c2ccccc2)nc2ccc(Br)cc2c1CNc1ccc(C(=O)O)cc1F	11.7 mL/min/kg	–	–	IC50 [4]: 0.025 µM
CCC1CCCN(c2nc3ccc(Br)cc3c(C(=O)NCC(CCC(=O)O)c3ccccc3Cl)c2C)C1 (single isomer, unassigned; 52)	–	5 µM	3.3	CL [1]: 48.3 mL/min/kg; IC50 [4]: 0.00053 µM
COc1ccccc1C(C)CNC(=O)c1c(C)c(-c2ccccc2)nc2ccc(Br)cc12 (single isomer, unassigned; (+))	–	–	–	IC50 [4]: 0.25 µM
CCC1CCCN(c2nc3ccc(Br)cc3c(C(=O)NCC(CCC(=O)O)c3ccccc3Cl)c2C)C1 (single isomer, unassigned; 55)	–	5 µM	–	IC50 [4]: 0.0076 µM
Cc1c(-c2ccccc2)nc2ccc(Br)cc2c1C(=O)NC(C)Cc1ccccn1 (racemic)	–	–	–	IC50 [4]: 0.5 µM
Cc1c(-c2ccccc2)nc2ccc(Br)cc2c1C(=O)NCC(CCC(=O)O)c1c(F)ccc(F)c1Cl (single isomer, unassigned; (-))	43.3 mL/min/kg	5 µM	–	–
Cc1c(-c2ccccc2)nc2ccc(Cl)cc2c1C(=O)Nc1ccc(C(=O)O)cc1F	–	> 20 µM	1.9	Ratio IC50 [5]: 17
COc1cccc(C(CNC(=O)c2c(C)c(-c3ccccc3)nc3ccc(Br)cc23)CC(=O)O)c1 (racemic)	–	> 20 µM	2	–
CCC1CCCN(c2nc3ccc(Br)cc3c(C(=O)NCC(CCC(=O)O)c3ccccc3Cl)c2C)C1 (single isomer, unassigned; 53)	–	10 µM	–	CL [1]: 21.7 mL/min/kg
CCC1CCCN(c2nc3ccc(Br)cc3c(C(=O)NCC(CCC(=O)O)c3ccccc3Cl)c2C)C1 (single isomer, unassigned; 54)	–	2 µM	–	–
O=C(O)c1ccc(NC(=O)c2c(C3CC3)c(-c3ccccc3)nc3ccc(Br)cc23)c(F)c1	–	–	2.1	Ratio IC50 [5]: 8.8

Now from value to compound, other results behind:

clearance [1]	IC50 [2]	logD [3]	SMILES	also measured
38.3 mL/min/kg	–	–	Cc1c(N2CCCCC2)nc2ccc(Br)cc2c1C(=O)NCC(CCC(=O)O)c1c(F)ccc(F)c1Cl (single isomer, unassigned; (-))	–
20 mL/min/kg	> 20 µM	2.3	Cc1c(N2CCCC2)nc2ccc(Br)cc2c1C(=O)NC[C@@H](CCC(=O)O)c1ccccc1Cl	–
21.7 mL/min/kg	–	–	Cc1c(N2CCCCCC2)nc2ccc(Br)cc2c1C(=O)NCC(CCC(=O)O)c1ccccc1Cl (single isomer, unassigned; (+))	–
16.7 mL/min/kg	–	–	Cc1c(N2CCCCC2)nc2ccc(Br)cc2c1C(=O)NCC(CCC(=O)O)c1ccccc1Cl (stereo in doubt; 48)	–
–	20 µM	2.3	Cc1c(-c2ccccc2)nc2ccc(Br)cc2c1C(=O)NCC(CCCC(=O)O)c1ccccc1Cl (single isomer, unassigned; (+))	–
–	> 20 µM	2.2	Cc1c(-c2ccccc2)nc2ccc(Br)cc2c1C(=O)NCC(CCC(=O)O)c1c(F)ccc(F)c1Cl (single isomer, unassigned; (+))	–
–	13 µM	–	Cc1c(-c2ccccc2)nc2ccc(Br)cc2c1C(=O)NCC(CC(=O)O)c1ccccc1Cl (stereo in doubt; 34)	CL [1]: 18.3 mL/min/kg
–	> 20 µM	2.6	Cc1c(N2CC(F)(F)C2)nc2ccc(Br)cc2c1C(=O)NCC(CCC(=O)O)c1ccccc1Cl (racemic)	Ratio IC50 [5]: > 220
